Consider 34 compounds from patent US11370774B2, “Substituted benzofuran, benzopyrrole, benzothiophene, and structurally related complement inhibitors” (BioCryst Pharmaceuticals, Inc., priority 2018, dated 2022).

The target in this assay is Factor D (Homo sapiens (Human), UniProt P00746). Put plainly: Factor D esterolytic assay (Z-Lys-SBzl substrate, DTNB, 405 nm). In kind it is biochemical. As to conditions: Z-Lys-SBzl 1.29 mM, pH 7.5, 10% DMSO, tested a minimum of three times, read-out: Measured Ki (IC50) Value for Compounds: IC50. The method, boiled down:
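Thioester hydrolysis (Z-Lys-SBzl, 1.29 mM) by human Factor D ([…]) detected through DTNB color at 405 nm over 600 sec, minus 690 nm background. Buffer: 100 mM HEPES pH 7.5, 500 mM NaCl, 10% DMSO; optional room-temperature preincubation before substrate. IC50 derived from percent rate inhibition; at least three runs.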

Factor D, sequence (P00746 26-253): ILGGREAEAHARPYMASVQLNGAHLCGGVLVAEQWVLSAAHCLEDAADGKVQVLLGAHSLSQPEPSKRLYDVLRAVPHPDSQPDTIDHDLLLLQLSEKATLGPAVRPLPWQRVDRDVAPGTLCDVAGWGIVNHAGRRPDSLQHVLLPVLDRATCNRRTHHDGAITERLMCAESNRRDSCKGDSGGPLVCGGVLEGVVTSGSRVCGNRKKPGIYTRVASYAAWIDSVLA

What is called IC50 is the concentration that inhibits the measured activity by half. Take `NCc1cccc(-c2nc(C(=O)Nc3ccccc3CC(=O)O)c3ccccc3n2)c1` [Compound 64f, 2-(2-(2-(3-(aminomethyl)phenyl)quinazoline-4-carboxamido)phenyl)acetic acid]: the IC50 is less than 1000 nM.

For `NCc1cccc(-c2cc(COc3cc4occc4cc3CC(=O)O)cc3ccoc23)c1` [Compound 298f, 2-(6-((7-(3-(aminomethyl)phenyl)benzofuran-5-yl)methoxy)benzofuran-5-yl)acetic acid], the IC50 was less than 1000 nM.

On to `CC(N)c1cccc(-c2cc(COc3ccccc3CC(=O)O)cc3ccoc23)n1` (stereo not shown) [Compound 100c, 2-(2-((7-(6-(1-aminoethyl)pyridin-2-yl)benzofuran-5-yl)methoxy)phenyl)acetic acid], for which the IC50 is 1000 to 10000 nM.

`NCc1cccc(-c2cc(COc3ccccc3CC(=O)O)c(F)c3ccoc23)c1F` [Compound 137b, 2-(2-((7-(3-(aminomethyl)-2-fluorophenyl)-4-fluorobenzofuran-5-yl)methoxy)phenyl)acetic acid]: the IC50 was less than 1000 nM.

In the case of `NCc1cccc(-c2cc(C(=O)Nc3ccccc3CC(=O)O)cc3cc[nH]c23)c1` [Compound 158c, 2-(2-(7-(3-(aminomethyl)phenyl)-1H-indole-5-carboxamido)phenyl)acetic acid], the IC50 is 1000 to 10000 nM.

Take `NCc1cccc(-c2cc(COc3ccccc3CC(=O)O)cc3c2ccn3CC2CC2)c1` [Compound 148e, 2-(2-((4-(3-(aminomethyl)phenyl)-1-(cyclopropylmethyl)-1H-indol-6-yl)methoxy)phenyl)acetic acid]: the IC50 is less than 1000 nM.

As to `CC(=O)Nc1ccc(CC(=O)O)c(OCc2cc(-c3ccnc(CN)c3)c3occc3c2)c1` [Compound 437c, 2-(4-acetamido-2-((7-(2-(aminomethyl)pyridin-4-yl)benzofuran-5-yl)methoxy)phenyl)acetic acid], the IC50 was less than 1000 nM.

`Cc1ccc(CC(=O)O)c(OCc2cc(-c3ccnc(CN)c3F)c3ccn(C(C)C)c3c2)c1` [Compound 355c, 2-(2-((4-(2-(aminomethyl)-3-fluoropyridin-4-yl)-1-isopropyl-1H-indol-6-yl)methoxy)-4-methylphenyl)acetic acid]: the IC50 is less than 1000 nM.

Turning to `NCc1cc(-c2cc(COc3cc(F)ccc3CC(=O)O)cc3ccoc23)ccn1` [Compound 365f, 2-(2-((7-(2-(aminomethyl)pyridin-4-yl)benzofuran-5-yl)methoxy)-4-fluorophenyl)acetic acid], the IC50 was less than 1000 nM.

For the compound `CC(C)Cc1cc2cc(COc3ccccc3CC(=O)O)cc(-c3ccnc(CN)c3F)c2o1` [Compound 220g, 2-(2-((7-(2-(aminomethyl)-3-fluoropyridin-4-yl)-2-isobutylbenzofuran-5-yl)methoxy)phenyl)acetic acid], the IC50 was less than 1000 nM.

Regarding `NCc1cccc(-c2cc(COc3ccccc3CC(=O)O)cc3occc23)c1` [Compound 115f, 2-(2-((4-(3-(aminomethyl)phenyl)benzofuran-6-yl)methoxy)phenyl)acetic acid], the IC50 was less than 1000 nM.

For the compound `COc1ccc(CC(=O)O)c(OCc2cc(-c3cccc(CN)c3)c3occc3c2)c1` [Compound 303g, 2-(2-((7-(3-(aminomethyl)phenyl)benzofuran-5-yl)methoxy)-4-methoxyphenyl)acetic acid], the IC50 was less than 1000 nM.

For `NCc1cccc(-c2cc(COc3ccccc3CC(=O)O)cc3c2ccn3S(=O)(=O)C2CC2)c1` [Compound 212e, 2-(2-((4-(3-(aminomethyl)phenyl)-1-(cyclopropylsulfonyl)-1H-indol-6-yl)methoxy)phenyl)acetic acid], the IC50 was less than 1000 nM.

Regarding `CC(C)S(=O)(=O)n1ccc2c(-c3cccc(CN)c3)cc(COc3ccccc3CC(=O)O)cc21` [Compound 228e, 2-(2-((4-(3-(aminomethyl)phenyl)-1-(isopropylsulfonyl)-1H-indol-6-yl)methoxy)phenyl)acetic acid], the IC50 was less than 1000 nM.

Take `NCc1cccc(-c2cc(COc3ccccc3CC(=O)O)cc3cc(C(O)C4CC4)oc23)c1` (stereo not shown) [Compound 105c, 2-(2-((7-(3-(aminomethyl)phenyl)-2-(cyclopropyl(hydroxy)methyl)benzofuran-5-yl)methoxy)phenyl)acetic acid]: the IC50 is less than 1000 nM.

Turning to `NCc1cccc(-c2cc(COc3ccccc3CC(=O)O)cc3c2ccn3C(F)(F)F)c1F` [Compound 518b, 2-(2-((4-(3-(aminomethyl)-2-fluorophenyl)-1-(trifluoromethyl)-1H-indol-6-yl)methoxy)phenyl)acetic acid], the IC50 was less than 1000 nM.

Consider `Cc1ccc(CC(=O)O)c(OCc2cc(-c3ccnc(CN)c3F)c3occc3c2)c1` [Compound 272e, 2-(2-((7-(2-(aminomethyl)-3-fluoropyridin-4-yl)benzofuran-5-yl)methoxy)-4-methylphenyl)acetic acid], for which the IC50 was less than 1000 nM.

For the compound `Cc1c(COc2ccccc2CC(=O)O)cc(-c2cccc(CN)c2)c2occc12` [Compound 413n, 2-(2-((7-(3-(aminomethyl)phenyl)-4-methylbenzofuran-5-yl)methoxy)phenyl)acetic acid], the IC50 was less than 1000 nM.

As for `NCc1cccc(-c2cc(COc3ccccc3CC(=O)O)cc3cc(CNC(=O)c4ccccc4)oc23)c1` [Compound 294f, 2-(2-((7-(3-(aminomethyl)phenyl)-2-(benzamidomethyl)benzofuran-5-yl)methoxy)phenyl)acetic acid], the IC50 is less than 1000 nM.

Take `NCc1cccc(-c2cc(COc3ccc(F)cc3CC(=O)O)cc3c(C(F)(F)F)coc23)c1` [Compound 500c, 2-(2-((7-(3-(aminomethyl)phenyl)-3-(trifluoromethyl)benzofuran-5-yl)methoxy)-5-fluorophenyl)acetic acid]: the IC50 is less than 1000 nM.

Consider `CC(=O)c1ccc(OCc2cc(-c3cccc(CN)c3)c3occc3c2)c(CC(=O)O)c1` [Compound 330c, 2-(5-acetyl-2-((7-(3-(aminomethyl)phenyl)benzofuran-5-yl)methoxy)phenyl)acetic acid], for which the IC50 was less than 1000 nM.

Turning to `Cn1ccc2c(-c3ccnc(CN)c3F)cc(COc3ccccc3CC(=O)O)cc21` [Compound 150b, 2-(2-((4-(2-(aminomethyl)-3-fluoropyridin-4-yl)-1-methyl-1H-indol-6-yl)methoxy)phenyl)acetic acid], the IC50 was less than 1000 nM.

For `Cn1ccc2c(-c3cccc(CN)c3F)cc(COc3ccccc3CC(=O)O)cc21` [Compound 97b, 2-(2-((4-(3-(aminomethyl)-2-fluorophenyl)-1-methyl-1H-indol-6-yl)methoxy)phenyl)acetic acid], the IC50 was less than 1000 nM.

`Cc1ccc(CC(=O)O)c(OCc2cc(-c3cccc(CN)c3F)c3occc3c2F)c1` [Compound 348b, 2-(2-((7-(3-(aminomethyl)-2-fluorophenyl)-4-fluorobenzofuran-5-yl)methoxy)-4-methylphenyl)acetic acid]: the IC50 is less than 1000 nM.

With `NCc1cccc(-c2cc(NC(=O)N3CCC[C@H]3C(=O)NCc3cccc(Cl)c3F)cc3ccoc23)c1` [Compound 418c, (S)—N1-(7-(3-(aminomethyl)phenyl)benzofuran-5-yl)-N2-(3-chloro-2-fluorobenzyl)pyrrolidine-1,2-dicarboxamide], the IC50 is less than 1000 nM.

Regarding `Cc1cc2c(-c3cccc(CN)c3F)cc(COc3ccccc3CC(=O)O)cc2o1` [Compound 409f, 2-(2-((4-(3-(aminomethyl)-2-fluorophenyl)-2-methylbenzofuran-6-yl)methoxy)phenyl)acetic acid], the IC50 was less than 1000 nM.

Consider `NCc1cccc(-c2cc(COc3ccc(C(N)=O)cc3CC(=O)O)cc3ccoc23)c1` [Compound 244c, 2-(2-((7-(3-(aminomethyl)phenyl)benzofuran-5-yl)methoxy)-5-carbamoylphenyl)acetic acid], for which the IC50 fell in the range of 1000 to 10000 nM.

As for `COCc1cc2cc(COc3cc(C)ccc3CC(=O)O)cc(-c3cccc(CN)c3F)c2o1` [Compound 444c, 2-(2-((7-(3-(aminomethyl)-2-fluorophenyl)-2-(methoxymethyl)benzofuran-5-yl)methoxy)-4-methylphenyl)acetic acid], the IC50 was less than 1000 nM.

On to `COCc1cc2cc(COc3cc(OC)ccc3CC(=O)O)cc(-c3cccc(CN)c3F)c2o1` [Compound 467b, 2-(2-((7-(3-(aminomethyl)-2-fluorophenyl)-2-(methoxymethyl)benzofuran-5-yl)methoxy)-4-methoxyphenyl)acetic acid], for which the IC50 is less than 1000 nM.

Regarding `NCc1cccc(-c2cc(COc3cccc(C(F)(F)F)c3CC(=O)O)cc3ccoc23)c1` [Compound 282f, 2-(2-((7-(3-(aminomethyl)phenyl)benzofuran-5-yl)methoxy)-6-(trifluoromethyl)phenyl)acetic acid], the IC50 is less than 1000 nM.

Take `CC(C)(C)c1cc(OCc2cc(-c3cccc(CN)c3)c3occc3c2)c(CC(=O)O)cc1Cl` [Compound 308h, 2-(2-((7-(3-(aminomethyl)phenyl)benzofuran-5-yl)methoxy)-4-(tert-butyl)-5-chlorophenyl)acetic acid]: the IC50 was less than 1000 nM.

As for `COc1c(C(=O)Nc2ccccc2CC(=O)O)cc(-c2ccnc(CN)c2)c2occc12` [Compound 251c, 2-(2-(7-(2-(aminomethyl)pyridin-4-yl)-4-methoxybenzofuran-5-carboxamido)phenyl)acetic acid], the IC50 fell in the range of 1000 to 10000 nM.

Consider `NCc1cccc(-c2cc(COc3ccccc3CC(=O)O)cc3[nH]c(C(F)(F)F)cc23)c1` [Compound 332e, 2-(2-((4-(3-(aminomethyl)phenyl)-2-(trifluoromethyl)-1H-indol-6-yl)methoxy)phenyl)acetic acid], for which the IC50 was less than 1000 nM.

Regarding `Cc1ccc(CC(=O)O)c(OCc2cc(-c3ccnc(CN)c3F)c3ccn(C)c3c2)c1` [Compound 366d, 2-(2-((4-(2-(aminomethyl)-3-fluoropyridin-4-yl)-1-methyl-1H-indol-6-yl)methoxy)-4-methylphenyl)acetic acid], the IC50 was less than 1000 nM.
